Reference: patent publication US20010008947A1, “2-AMINO-4-PHENYL-4-OXO-BUTYRIC ACID DERIVATIVES” (priority 1993, published 2001)
Counter-ions that a name gives are not always drawn.

How the values were obtained:
kynureninase = target: T1, kynureninase (Rattus norvegicus, UniProt P70712); experiment: Kynureninase inhibition in rat liver homogenates; type: biochemical; details: rat liver homogenate; for inhibition at 1000 µM: 1 mM
T1 construct: from tissue; host or cells: rat liver homogenate
T1 sequence (P70712 1-464): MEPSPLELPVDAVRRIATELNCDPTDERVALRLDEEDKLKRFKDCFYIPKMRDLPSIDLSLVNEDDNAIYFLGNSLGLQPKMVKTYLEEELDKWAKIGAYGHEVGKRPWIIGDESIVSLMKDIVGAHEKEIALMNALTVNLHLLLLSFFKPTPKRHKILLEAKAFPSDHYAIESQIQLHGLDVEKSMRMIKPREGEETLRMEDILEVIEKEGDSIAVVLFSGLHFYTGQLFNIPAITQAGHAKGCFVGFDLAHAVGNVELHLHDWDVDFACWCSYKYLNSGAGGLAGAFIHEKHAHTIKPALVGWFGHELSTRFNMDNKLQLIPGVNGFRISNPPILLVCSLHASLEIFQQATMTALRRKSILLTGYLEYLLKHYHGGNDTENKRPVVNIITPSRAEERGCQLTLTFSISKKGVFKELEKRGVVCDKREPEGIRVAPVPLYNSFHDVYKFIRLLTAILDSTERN
Protocol: The efficacy of the compounds of the invention in the inhibition of kynureninase has been evaluated in rat liver homogenates as described by, Takikawa O. et al. in J. Biol. Chem. 261 (8), 3648-3652 - 1986), with slight modifications.
HPLC method was essentially Takikawa's method, using the same Fluorimetric detection (ex. 313 nm, em. 420 nm) but changing the column (Nova-Pak C18 3.9×300 mm) and the mobile phase (phosphate buffer 80 mM, 13% CH.CN pH 2.5).

rat brain kynureninase [1] = target: T2, rat brain kynureninase (Rattus norvegicus, UniProt P70712); experiment: Kynureninase assay in the rat brain; type: biochemical; details: rat brain homogenate; for inhibition at 100 µM: read-out: % INHIBITION AT 100 μM Kyn-Ase
T2 construct: Partial purification of rat brain kynureninase was performed according to Lee et al; from tissue; host or cells: rat brain, partially purified enzyme
T2 sequence (P70712 1-464): T1 sequence (P70712 1-464)
Protocol: Kynureninase assay in the rat brain
Partial purification of rat brain kynureninase was performed according to Lee et al., “Isolation and characterization of kynureninase from rat liver”, advances in Tryptophan Research, 431-434, 1992.
To perform rat brain kynureninase assay, a reaction mixture (final volume 0.2 ml) containing 100 mM tris-HCl, pH 8.0, […] pyridoxal phosphate, […] kynurenine, 20 μl of partially purified enzyme and 100 μM of inhibitor solution was prepared.
The reaction was carried out at 37° C. for 3 hours and then stopped by adding 50 μl of perchloric acid 2N. After centrifugation at 11000 rpm for 15 min., anthranilic acid in the supernatant was determined fluorimetrically in a HPLC system (as described for the liver method).

kynurenine-3-hydroxylase [2] = target: T3, kynurenine-3-hydroxylase (Rattus norvegicus, UniProt O88867); experiment: Kynurenine-3-hydroxylase assay in the rat brain; type: biochemical; details: rat brain homogenate; for inhibition at 100 µM: read-out: % INHIBITION AT 100 μM Kyn-3-OH-Ase; for IC50: read-out: IC50 Kyn-3-OH-Ase
T3 construct: Brain was homogenized in ice-cold 0.32 M sucrose and centrifugated at 12000×g; from tissue; host or cells: rat brain homogenate, washed pellet suspended
Protocol: Kynurenine-3-hydroxylase assay in the rat brain
Kynurenine-3-hydroxylase activity was quantified by the conversion of L-kynurenine to 3-hydroxykynurenine. Brain was homogenized in ice-cold 0.32 M sucrose and centrifugated at 12000×g, for 30 min at 4 C. The pellet was washed three times with 0.32 M sucrose by centrifugation and suspended in 0.14 M KCl in 20 mM K-phosphate buffer pH 7 (1 g tissue in 2 ml buffer).
The reaction mixture contained: 75 μl of suspended homogenate; 100 μl of substrate solution containing 50 mM K-phosphate buffer pH 7.5, 2 mM MgCl2, 0.4 mM NADPH and 50 μM L-kynurenine (final concentration); 25 μl of different concentrations of inhibitor solutions.
The reaction was stopped by addition of 200 μl of 1 M HClO4 after 60 min. incubation.
3-hydroxykynurenine formed was quantified by HPLC with coulometric detection (working voltage was +0.2 V). The column was a 10 cm C18 reversed phase (3 μm). The mobile phase consisted of 950 ml distilled water. 20 ml acetonitrile, 9 ml triethylamine, 5.9 ml phosphoric acid, 100 mg sodium EDTA and 1.5 g heptanesulfonic acid. The flow-rate was 1 ml/min.

rat brain kynureninase [3] = target: T2, rat brain kynureninase; experiment: Kynureninase assay in the rat brain; type: biochemical; details: rat brain homogenate; read-out: IC50 Kyn-Ase
kynurenine-3-hydroxylase [4] = target: T3, kynurenine-3-hydroxylase; experiment: Kynurenine-3-hydroxylase assay in the rat liver; type: biochemical; details: rat liver homogenate
Protocol: Kynurenine-3-hydroxylase assay in the rat liver
Rat liver is homogenized in cold 0.32 M sucrose.
The homogenates are centrifuged at 12000×rpm for 30 minutes at 4° C. The precipitate, after having been washed three times with 0.32 M sucrose by means of centrifugation (12000×rpm for 30 min), is resuspended in 20 mM K-buffer+0.14 M KCl at pH 7 (1 g of liver in 6.5 ml ).
The reaction at 37° C. is terminated by the addition of 200 μl of […] after 10 minutes of incubation.
The concentrations of 3-hydroxy-kynurenine, produced in the absence or presence of the tested molecules are determined by HPLC with coulometric detection (pot. +0.20 V), using for the separation a reversed phase column C18, 10 cm long and a 3 μm particulate. The composition of the mobile phase was: 950 ml of water for HPLC, 20 ml of acetonitrile, 9 ml of triethylamine, 5.9 ml of phosphoric acid, 100 mg of Na EDTA and 1.5 g of heptanesulfonic acid.

T3 sequence (O88867 whole entry): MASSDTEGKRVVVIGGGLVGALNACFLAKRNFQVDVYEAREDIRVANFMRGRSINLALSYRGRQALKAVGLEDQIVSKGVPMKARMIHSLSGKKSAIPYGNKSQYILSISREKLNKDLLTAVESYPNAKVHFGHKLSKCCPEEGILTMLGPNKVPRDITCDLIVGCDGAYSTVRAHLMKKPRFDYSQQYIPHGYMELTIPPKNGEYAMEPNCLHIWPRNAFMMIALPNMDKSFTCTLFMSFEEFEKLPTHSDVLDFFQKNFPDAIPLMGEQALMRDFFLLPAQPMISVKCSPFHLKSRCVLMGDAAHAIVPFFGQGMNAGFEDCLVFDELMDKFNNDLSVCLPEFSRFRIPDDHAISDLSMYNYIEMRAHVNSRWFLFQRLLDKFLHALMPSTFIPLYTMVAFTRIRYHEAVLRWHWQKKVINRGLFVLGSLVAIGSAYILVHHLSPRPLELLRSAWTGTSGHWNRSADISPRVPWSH

Row | SMILES | melting point | inhibition at 100 µM (rat brain kynureninase [1]) | inhibition at 100 µM (kynurenine-3-hydroxylase [2]) | IC50 (kynurenine-3-hydroxylase [2]) | also measured
1 | COc1ccc(Cl)cc1C(=O)CC(N)C(=O)O (racemic) (as salt: hydrochloride) [FCE 28836, (R,S)-2-amino-4-(2′-methoxy-5′-chlorophenyl-4-oxo-butyric acid] | 212 to 213 °C |  |  |  | 
2 | NC(CC(=O)c1ccccc1)C(=O)O (racemic) [FCE 27377, (R,S)-2-amino-4-phenyl-4-oxo-butyric acid] |  | 35.6% |  |  | inhibition at 100 µM (kynureninase): 46%; inhibition at 1000 µM (kynureninase): 86%
3 | COc1ccccc1C(=O)CC(N)C(=O)O (racemic) [FCE 27384, (R,S)-2-amino-4-(2′-methoxyphenyl)-4-oxo-butyric acid] | 115 °C (dec.) | 86% | 4% |  | IC50 (rat brain kynureninase [3]): 6 µM; inhibition at 100 µM (kynureninase): 96%; inhibition at 1000 µM (kynureninase): 97%; inhibition at 100 µM (kynurenine-3-hydroxylase [4]; 100 μM): 3%; inhibition at 1000 µM (kynurenine-3-hydroxylase [4]; 1 mM): 30%
4 | COc1ccc(C(=O)CC(N)C(=O)O)cc1 (racemic) [FCE 28628, (R,S)-2-amino-4-(4′-methoxyphenyl)-4-oxo-butyric acid] | 160 °C (dec.) | 17% | 79% | 30 µM | 
5 | COc1cccc(C(=O)C[C@@H](N)C(=O)O)c1 (racemic) [FCE 28629, (R,S)-2-amino-4-(3′-methoxyphenyl)-4-oxo-butyric acid] |  |  |  |  | % INHIBITION AT 100 μM Kyn-3-OH-Ase (kynurenine-3-hydroxylase [2]): 29%; % INHIBITION AT 100 μM Kyn-Ase (rat brain kynureninase [1]): 54%
6 | Cc1ccccc1C(=O)CC(N)C(=O)O (racemic) [FCE 28630, (R,S)-2-amino-4-(2′-methylphenyl)-4-oxo-butyric acid] | 192 to 193 °C (dec.) | 40% | 81% | 23 µM | 
7 | N[C@H](CC(=O)c1ccccc1F)C(=O)O (racemic) [FCE 28631, (R,S)-2-amino-4-(2′-fluorophenyl)-4-oxo-butyric acid] |  |  |  |  | % INHIBITION AT 100 μM Kyn-3-OH-Ase (kynurenine-3-hydroxylase [2]): 47%; % INHIBITION AT 100 μM Kyn-Ase (rat brain kynureninase [1]): 52%
8 | N[C@H](CC(=O)c1cccc(C(F)(F)F)c1)C(=O)O (racemic) [FCE 28680, (R,S)-2-amino-4-(3′-trifluoromethylphenyl)-4-oxo-butyric acid] |  |  |  |  | % INHIBITION AT 100 μM Kyn-3-OH-Ase (kynurenine-3-hydroxylase [2]): 17%; % INHIBITION AT 100 μM Kyn-Ase (rat brain kynureninase [1]): 67%
9 | NC(CC(=O)c1ccc(Cl)cc1)C(=O)O (racemic) [FCE 28751, (R,S)-2-amino-4-(4′-chlorophenyl)-4-oxo-butyric acid] | 204 to 206 °C | 0% | 85% | 7 µM | 
10 | NC(CC(=O)c1cccc(Cl)c1)C(=O)O (racemic) [FCE 28752, (R,S)-2-amino-4-(3′-chlorophenyl)-4-oxo-butyric acid] | 198 to 200 °C (dec.) | 60% | 93% | 0.4 µM | 
11 | N[C@H](CC(=O)c1ccccc1Cl)C(=O)O (racemic) [FCE 28753, (R,S)-2-amino-4-(2′-chloroohenyl)-4-oxo-butyric acid] |  |  |  |  | % INHIBITION AT 100 μM Kyn-3-OH-Ase (kynurenine-3-hydroxylase [2]): 22%; % INHIBITION AT 100 μM Kyn-Ase (rat brain kynureninase [1]): 71%
12 | NC(CC(=O)c1cccc(F)c1)C(=O)O (racemic) [FCE 28764, (R,S)-2-amino-4-(3′-fluorophenyl)-4-oxo-butyric acid] | 194 to 195 °C (dec.) | 0% | 93% | 0.9 µM | 
13 | COc1ccc(F)cc1C(=O)C[C@@H](N)C(=O)O (racemic) [FCE 28766, (R,S)-2-amino-4-(2′-methoxy-5′-fluoropheryl)-4-oxo-butyric acid] |  |  |  |  | % INHIBITION AT 100 μM Kyn-3-OH-Ase (kynurenine-3-hydroxylase [2]): 2%; % INHIBITION AT 100 μM Kyn-Ase (rat brain kynureninase [1]): 81%
14 | NC(CC(=O)c1ccc(Cl)c(Cl)c1)C(=O)O (racemic) [FCE 28833, (R,S)-2-amino-4-(3′,4′-dichlorophenyl)-4-oxo-butyric acid] |  |  | 99% | 0.2 µM | 
15 | COc1ccc(Cl)cc1C(=O)CC(N)C(=O)O (racemic) [FCE 28836, (R,S)-2-amino-4-(2′-methoxy-5′-chlorophenyl-4-oxo-butyric acid] |  |  | 73% | 33 µM | 
16 | N[C@@H](CC(=O)c1ccccc1)C(=O)O [FCE 28468, (S)-2-amino-4-phenyl-4-oxo-butyric acid] |  | 61% |  |  | 
17 | N[C@H](CC(=O)c1ccccc1)C(=O)O [FCE 28469, (R)-2-amino-4-phenyl-4-oxo-butyric acid] |  | 19% |  |  | 
18 | COc1ccccc1C(=O)C[C@H](N)C(=O)O [FCE 28626, (S)-2-amino-4-(2′-methoxyphenyl)-4-oxo-butyric acid] | 130 °C (dec.) |  |  |  | 
